The test system of data set [1] is bicistronic HCV replicon (replicon RNA, GenBank Accession No. AJ242654). Description: HCV Replicon Assay. In kind it is cell-based. As to conditions: Hepatitis C virus, 72 h, read-out: Replicon IC50.

Broadly, the melting point is the temperature, or range, at which the solid turns liquid. For orientation: IC50 means the concentration needed to halve the response being measured. The compound `CC(C)c1ccc2c(C#N)c(-c3ncc(S(=O)(=O)NC(CF)CF)cn3)n(C3CCC3)c2c1` [compound 186, 2-[3-cyano-1-cyclobutyl-6-(propan-2-yl)-1H-indol-2-yl]-N-(1,3-difluoropropan-2-yl)pyrimidine-5-sulfonamide] returned a melting point of 214 to 222 °C. In addition, the half-inhibitory concentration (IC50) in data set [1] was below 500 nM.
In the case of `Cc1ccc2c(C#N)c(-c3ccc(S(=O)(=O)NC4(C(F)(F)F)CC4)cn3)n(C3CCCC3)c2c1` [compound 190, 6-(3-cyano-1-cyclopentyl-6-methyl-1H-indol-2-yl)-N-[1-(trifluoromethyl)cyclopropyl]pyridine-3-sulfonamide], the melting point fell in the range of 199 to 210 °C. Further, the half-inhibitory concentration (IC50) in data set [1] is below 500 nM.
`C[C@@H](NS(=O)(=O)c1ccc(-c2c(C#N)c3ccc(OC(F)(F)F)cc3n2C2CCC2)nc1)C(F)(F)F` [compound 191, 6-[3-cyano-1-cyclobutyl-6-(trifluoromethoxy)-1H-indol-2-yl]-N-[(2R)-1,1,1-trifluoropropan-2-yl]pyridine-3-sulfonamide] displayed a melting point of 171 to 177 °C. Also, in data set [1], the IC50 lay within 500 to 2000 nM.
In the same order, the values of `Cc1ccc2c(C#N)c(-c3ccc(S(=O)(=O)N[C@H](C)C(F)(F)F)cn3)n(C3CCC3)c2c1` [compound 192, 6-(3-cyano-1-cyclobutyl-6-methyl-1H-indol-2-yl)-N-[(2R)-1,1,1-trifluoropropan-2-yl]pyridine-3-sulfonamide] are 204 to 208 °C and below 500 nM.
Taken in the same sequence, the figures for `N#Cc1c(-c2ncc(S(=O)(=O)NC(CF)CF)cn2)n(C2CCCCC2)c2cc(C3CC3)ccc12` [compound 193, 2-(3-cyano-1-cyclohexyl-6-cyclopropyl-1H-indol-2-yl)-N-(1,3-difluoropropan-2-yl)pyrimidine-5-sulfonamide] were > 200 °C (dec.) and below 500 nM.
For the compound `CC(C)n1c(-c2ccc(S(=O)(=O)N[C@H](C)C(F)(F)F)cn2)c(C#N)c2ccc(OC(F)F)cc21` [compound 194, 6-[3-cyano-6-(difluoromethoxy)-1-(propan-2-yl)-1H-indol-2-yl]-N-[(2R)-1,1,1-trifluoropropan-2-yl]pyridine-3-sulfonamide], the melting point was 166 to 168 °C. In addition, the IC50 in data set [1] is below 500 nM.
Taken in the same sequence, the figures for `C[C@@H](NS(=O)(=O)c1ccc(-c2c(C#N)c3ccc(OC(F)F)cc3n2C2CCCCC2)nc1)C(F)(F)F` [compound 195, 6-[3-cyano-1-cyclohexyl-6-(difluoromethoxy)-1H-indol-2-yl]-N-[(2R)-1,1,1-trifluoropropan-2-yl]pyridine-3-sulfonamide] were 170 to 172 °C and below 500 nM.
Taken in the same sequence, the figures for `Cc1ccc2c(C#N)c(-c3ccc(S(=O)(=O)N[C@H](C)C(F)(F)F)cn3)n(CC3CC3)c2c1` [compound 197, 6-[3-cyano-1-(cyclopropylmethyl)-6-methyl-1H-indol-2-yl]-N-[(2R)-1,1,1-trifluoropropan-2-yl]pyridine-3-sulfonamide] were 165 to 169 °C and below 500 nM.
`Cc1ccc2c(c1)c(C#N)c(-c1ncc(S(=O)(=O)NC(CF)CF)cn1)n2C1CCCCC1` [compound 198, 2-(3-cyano-1-cyclohexyl-5-methyl-1H-indol-2-yl)-N-(1,3-difluoropropan-2-yl)pyrimidine-5-sulfonamide] came in with a melting point of 211 to 215 °C. Moreover, the half-inhibitory concentration (IC50) in data set [1] lay within 500 to 2000 nM.
In the same order, the values of `Cc1ccc2c(c1)c(C#N)c(-c1ccc(S(=O)(=O)NC(CF)CF)cn1)n2C1CCCCC1` [compound 199, 6-(3-cyano-1-cyclohexyl-5-methyl-1H-indol-2-yl)-N-(1,3-difluoropropan-2-yl)pyridine-3-sulfonamide] are 210 to 215 °C and below 500 nM.
The compound `Cc1ccc2c(c1)c(C#N)c(-c1ncc(S(=O)(=O)NC(C)C)cn1)n2C1CCCCC1` [compound 200, 2-(3-cyano-1-cyclohexyl-5-methyl-1H-indol-2-yl)-N-(propan-2-yl)pyrimidine-5-sulfonamide] came in with a melting point of 183 to 188 °C. In addition, the 50% inhibitory concentration (IC50) in data set [1] lay within 500 to 2000 nM.
Taken in the same sequence, the figures for `Cc1ccc2c(c1)c(C#N)c(-c1ccc(S(=O)(=O)N[C@@H](C)C3CC3)cn1)n2C1CCC1` [compound 201, 6-(3-cyano-1-cyclobutyl-5-methyl-1H-indol-2-yl)-N-[(1S)-1-cyclopropylethyl]pyridine-3-sulfonamide] were 173 to 178 °C and below 500 nM.
Taken in the same sequence, the figures for `Cc1ccc2c(C#N)c(-c3ncc(S(=O)(=O)N[C@@H](C)C4CC4)cn3)n(CC3CC3)c2c1` [compound 203, 2-[3-cyano-1-(cyclopropylmethyl)-6-methyl-1H-indol-2-yl]-N-[(1S)-1-cyclopropylethyl]pyrimidine-5-sulfonamide] were 205 to 207 °C and below 500 nM.
The compound `Cc1ccc2c(C#N)c(-c3ncc(S(=O)(=O)N[C@@H](C)C4CC4)cn3)n(C3CCCC3)c2c1` [compound 204, 2-(3-cyano-1-cyclopentyl-6-methyl-1H-indol-2-yl)-N-[(1S)-1-cyclopropylethyl]pyrimidine-5-sulfonamide] gave a melting point of 180 to 182 °C. For the same compound, the concentration for half-maximal inhibition (IC50) in data set [1] was below 500 nM.
Taken in the same sequence, the figures for `COc1ccc2c(C#N)c(-c3ncc(S(=O)(=O)N[C@@H](C)C4CC4)cn3)n(C3CCC3)c2c1` [compound 205, 2-(3-cyano-1-cyclobutyl-6-methoxy-1H-indol-2-yl)-N-[(1S)-1-cyclopropylethyl]pyrimidine-5-sulfonamide] were 204 to 206 °C and below 500 nM.
Compound `COc1ccc2c(C#N)c(-c3ncc(S(=O)(=O)N[C@@H](C)C4CC4)cn3)n(C3CCCC3)c2c1` [compound 206, 2-(3-cyano-1-cyclopentyl-6-methoxy-1H-indol-2-yl)-N-[(1S)-1-cyclopropylethyl]pyrimidine-5-sulfonamide] yielded a melting point of 192 to 194 °C. The IC50 in data set [1] was 500 to 2000 nM.
In the same order, the values of `CC(C)n1c(-c2ncc(S(=O)(=O)N[C@@H](C)C3CC3)cn2)c(C#N)c2ccc(OC(F)F)cc21` [compound 207, 2-[3-cyano-6-(difluoromethoxy)-1-(propan-2-yl)-1H-indol-2-yl]-N-[(1S)-1-cyclopropylethyl]pyrimidine-5-sulfonamide] are 169 to 170 °C and 500 to 2000 nM.
As to `CCCn1c(-c2ncc(S(=O)(=O)N[C@@H](C)C3CC3)cn2)c(C#N)c2ccc(OC(F)F)cc21` [compound 208, 2-[3-cyano-6-(difluoromethoxy)-1-propyl-1H-indol-2-yl]-N-[(1S)-1-cyclopropylethyl]pyrimidine-5-sulfonamide], the melting point is 152 to 154 °C. In addition, the IC50 in data set [1] is below 500 nM.
As for `C[C@H](NS(=O)(=O)c1cnc(-c2c(C#N)c3ccc(OC(F)F)cc3n2C2CCCC2)nc1)C1CC1` [compound 209, 2-[3-cyano-1-cyclopentyl-6-(difluoromethoxy)-1H-indol-2-yl]-N-[(1S)-1-cyclopropylethyl]pyrimidine-5-sulfonamide], the melting point was in the range of 183 to 185 °C. Besides, the IC50 in data set [1] is below 500 nM.

The values are drawn from patent US8735414B2 (priority 2009, dated 2014).
